According to patent US10428028B2, “HDAC inhibitors” (BIOMARIN PHARMACEUTICAL INC., priority 2013, dated 2019):

Key:
HDAC1 = HDAC1 (Homo sapiens (Human), UniProt Q13547); assay: HDAC enzyme inhibition assay (Fluor-de-Lys), HDAC1; type: biochemical; conditions: 2 hours pre-incubation
Protocol: The HDAC activity inhibition assay was performed as follows to determine the ability of a test compound to inhibit HDAC enzymatic activity. Serial dilutions of HDAC inhibitors were prepared in HDAC assay buffer (25 mM Tris/HCl, pH 8.0, 137 mM NaCl, 2.7 mM KCl, 1 mM MgCl2, pH 8) in 96-well assay plates (Fisher scientific, #07-200-309) and were pre-incubated for 2 hours at room temperature in the presence of 125 μg/ml BSA and purified HDAC1 (BPS Bioscience, San Diego, Calif., #50051), HDAC2 (BPS Bioscience, #50053), or HDAC3/NcoR2 (BPS Bioscience, #50003) at concentrations of 1.25, 1.32, and 0.167 μg/mL, respectively. Following pre-incubation, Fluor-de-Lys™ substrate (Enzo Life Sciences, Plymouth Meeting, Pa., BML-KI104-0050) was added to a final concentration of 10 μM and plates were further incubated for 30 minutes at room temperature. The enzymatic reaction was stopped by addition of Trichostatin A (Sigma-Aldrich, St Louis, Mo., #T8552, final concentration: 100 nM) and trypsin (MP Biomedicals, Solon, Ohio, #02101179) was added to reach a final concentration of 100 μg/mL. After a 15 minute incubation at room temperature, fluorescence was recorded using a Spectramax M2 fluorometer (Molecular Devices, Sunnyvale, Calif.) with excitation at 365 nm and emission at 460 nm. IC50 values were calculated by using a sigmoidal dose-response (variable slope) equation in GraphPad Prism® 5 for Windows (GraphPad Software, La Jolla, Calif.). Results for selected compounds in the HDAC activity inhibition assay are presented in Table 5 (IC50 ranges: IA>20 μM, A<1 μM, 1<B<5 μM, 5<C<10 μM, 10<D<20 μM, ND: not determined).

[1] = Hepatocyte stability and metabolism (parent remaining, acid and OPD formation); type: in vitro ADME; conditions: human hepatocytes; for % left 6H Hum hep: 5 μM; for OPD: OPD formation by LC-MS/MS after phenylglyoxal derivatisation
Protocol: The inventors have found, however, that formula (I) compound metabolites are substantially free of OPD when formula (I) compounds are subjected to conditions intended to mimic in vivo metabolism pathways. As used herein, the term “substantially free of OPD” means that OPD was not detected by LC-MS/MS after (i) incubating a formula (I) compound with human, monkey, dog and rat hepatocytes and (ii) treating the metabolite milieu with an acidic solution of phenylglyoxal in an organic solvent (this addition leads to quantitative formation of 2-phenylquinoxaline, which can be easily quantified with a low lower limit of quantitation (LLOQ)). See the Examples section.
To assess the stability and metabolism of RGFP compounds and to quantify the metabolites in hepatocytes. This assay was designed to evaluate the metabolism of RGFP compounds, following their incubation with human, monkey, dog and rat hepatocytes by monitoring either parent drug disappearance or metabolite appearance using LC-MS/MS. The results are shown in Table 5 ((% Left in Hep: IA<10%, 50%<A, 50%>B>30%, 30%>C>10%, ND: not determined).
Procedure: Turn on the water-bath heater to 37° C. Take out the KHB buffer and make sure it is at room temp before use. Prepare 2.5 mM concentration of RGFP compound in DMSO stock. Add 10 μL of above DMSO stock to 2490 μL KHB buffer; final concentration of RGFP compound will be 10 μM. Pre-warm 45 ml InVitro HT Medium to 37° C. in a sterile 50 ml conical tube. Add 1.0 mL Torpedo Antibiotic Mix per 45 mL InVitro HT medium. Transfer 13 mL of warm HT medium with Antibiotic Mix into a 15 mL conical tube. Carefully remove the hepatocyte vials from liquid nitrogen (liquid phase). Immediately immerse the vial into a 37° C. water bath. Shake gently until the ice melts entirely. […] Immediately empty contents of the vial into 13 ml of pre-warmed InVitro HT Medium with antibiotics. Rinse the vial with the HT media just transferred the hepatocytes to, in order to ensure complete transfer. Centrifuge the cell suspension at 600 RPM for 5 minutes at room temperature. […] Add 1.0 ml of KHB (at room temperature) buffer to the tube of hepatocyte pellet. Loosen the cell pellet by gently swirling the centrifuge tube. Transfer 100 μL of above solution to a different tube and add 900 μL of KHB buffer to count the cells. Determine the total cell count and the number of viable cells using the Trypan Blue exclusion method. Once the cell count is obtained, multiply the number by 10 (attributing to the dilution factor). Add required volume of KHB buffer to the tube containing hepatocytes such that the final count will be 2 million cells/mL. Dispense 50 μL of 2 million cells/ml to a 96 well plate and then add 50 μl of DMSO stock to respective wells (such that, the concentration of RGFP compounds is 5 μM and number of cells are 100000 in each well). Place the plates on a shaker in a 37° C. incubator with 5% CO2. Separate plates for each time point are advisable (Time points: 0 h, 1 h, 2 h, and 6 h). After each time point, add 100 μL of quenching solution. Quenching solution is an acetonitrile solution containing RGFP531 (10 μM) internal standard, 0.1% formic acid and phenylglyoxol (400 μM). The formic acid and phenylglyoxal is used for the identification and quantification of OPD as mentioned above. Pipette up and down a few times to ensure a complete stop of reaction. Transfer all the solution into a 1.5 ml tube, vortex thoroughly, and centrifuge at 14000 RPM at 4° C. for 5 minutes to precipitate cell debris. Transfer the 150 μL of supernatant to vials for analysis on LC-MS/MS.
LC-MS/MS parameters for RGFP compounds and metabolites including OPD: LC-MS/MS Parameters for API 2000 QTrap: System: HPLC 1100; Column: Gemini C18, 5 μM 4.6×50 mm; Column Temp: Ambient; MS: API 2000 QTrap (MI mode); Mobile Phase A: HPLC water with 0.05% Formic Acid; Mobile Phase B: Acetonitrile with 0.05% Formic Acid.

Chain of HDAC1 (Q13547 whole entry): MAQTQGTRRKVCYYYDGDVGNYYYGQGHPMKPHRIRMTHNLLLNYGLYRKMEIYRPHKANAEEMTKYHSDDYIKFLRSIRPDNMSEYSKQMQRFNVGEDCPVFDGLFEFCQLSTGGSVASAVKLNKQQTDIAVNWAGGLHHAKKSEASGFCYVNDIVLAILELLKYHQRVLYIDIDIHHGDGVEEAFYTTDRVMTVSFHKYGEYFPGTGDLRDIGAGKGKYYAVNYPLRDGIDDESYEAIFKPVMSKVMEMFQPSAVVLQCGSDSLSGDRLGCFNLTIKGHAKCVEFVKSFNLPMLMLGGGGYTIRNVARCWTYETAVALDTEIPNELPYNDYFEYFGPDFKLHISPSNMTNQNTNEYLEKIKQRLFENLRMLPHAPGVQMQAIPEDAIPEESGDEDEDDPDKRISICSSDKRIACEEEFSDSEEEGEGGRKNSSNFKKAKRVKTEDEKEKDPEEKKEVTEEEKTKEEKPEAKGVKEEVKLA

Row | SMILES | IC50 (HDAC1) | % left 6H Hum hep [1] | OPD [1]
1 | Nc1ccccc1NC(=O)c1ccc2c(cnn2Cc2cccnc2)c1 [Compound A1] | < 1000 nM | A (50%<A) | No OPD
2 | Nc1ccccc1NC(=O)c1ccc2c(cnn2Cc2ccccc2)c1 [Compound A2] | < 1000 nM | B (50%>B>30%) | No OPD
3 | Cn1cc(Cn2ncc3cc(C(=O)Nc4ccccc4N)ccc32)cn1 [Compound A3] | < 1000 nM | A (50%<A) | No OPD
4 | Nc1ccccc1NC(=O)c1ccc2c(cnn2Cc2cncc(F)c2)c1 [Compound A4, N-(2-aminophenyl)-1-((5-fluoropyridin-3-yl)methyl)-1H-indazole-5-carboxamide] | < 1000 nM | A (50%<A) | No OPD
5 | Cc1ccc(Cn2ncc3cc(C(=O)Nc4ccccc4N)ccc32)c(C)n1 [Compound A5] | < 1000 nM | B (50%>B>30%) | No OPD

The next lines start with the values.

Row | IC50 (HDAC1) | % left 6H Hum hep [1] | OPD [1] | SMILES
6 | < 1000 nM | B (50%>B>30%) | No OPD | Nc1cc(F)ccc1NC(=O)c1ccc2c(cnn2Cc2cccnc2)c1 [Compound A6]
7 | < 1000 nM | B (50%>B>30%) | No OPD | Nc1cc(F)ccc1NC(=O)c1ccc2c(cnn2Cc2cncc(F)c2)c1 [Compound A7]
8 | < 1000 nM | A (50%<A) | No OPD | Cc1ccc(Cn2ncc3cc(C(=O)Nc4ccc(F)cc4N)ccc32)c(C)n1 [Compound A8]
9 | < 1000 nM | B (50%>B>30%) | No OPD | Nc1ccccc1NC(=O)c1ccc2c(cnn2Cc2ccc(F)c(F)c2)c1 [Compound A9]
10 | 1000 to 5000 nM | C (30%>C>10%) | No OPD | Nc1cc(F)ccc1NC(=O)c1ccc2c(cnn2CC2CC2)c1 [Compound A12]
11 | < 1000 nM | A (50%<A) | No OPD | Nc1ccccc1NC(=O)c1ccc2nn(Cc3cccnc3)cc2c1 [Compound A13]
12 | < 1000 nM | A (50%<A) | No OPD | Nc1ccccc1NC(=O)c1ccc2nn(Cc3cncc(F)c3)cc2c1 [Compound A14, N-(2-aminophenyl)-2-((5-fluoropyridin-3-yl)methyl)-2H-indazole-5-carboxamide]
13 | < 1000 nM | A (50%<A) | No OPD | Cc1ccc(Cn2cc3cc(C(=O)Nc4ccccc4N)ccc3n2)c(C)n1 [Compound A15]
